SMILES strings stand for the structures.

The values that follow come from article PMC6850767, “Light-at-night exposure affects brain development through pineal allopregnanolone-dependent mechanisms” (eLife, 2019).

For the experiment, the target named is T1, chicken mPRα (membrane progesterone receptor α) (Gallus gallus, UniProt C6KGD4).
T1 construct: gene PAQR7; membrane fraction or whole cells; band approx. 42 kDa
T1 sequence (C6KGD4 1-346): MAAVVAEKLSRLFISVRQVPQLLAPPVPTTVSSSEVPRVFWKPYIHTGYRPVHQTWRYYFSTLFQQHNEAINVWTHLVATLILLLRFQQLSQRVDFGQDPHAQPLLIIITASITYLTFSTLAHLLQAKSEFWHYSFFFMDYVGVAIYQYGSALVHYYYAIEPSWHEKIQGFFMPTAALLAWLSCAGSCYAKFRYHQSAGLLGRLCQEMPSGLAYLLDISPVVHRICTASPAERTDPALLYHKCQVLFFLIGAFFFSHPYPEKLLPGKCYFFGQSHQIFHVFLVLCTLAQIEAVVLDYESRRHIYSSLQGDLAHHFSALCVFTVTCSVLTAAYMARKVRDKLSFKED
Nature of the experiment: radioligand saturation binding, Scatchard plot, cell membrane fraction.

Usually Kd stands for the equilibrium constant for the complex coming apart. Read a low Kd as a tighter complex. Consider `CC(=O)[C@H]1CC[C@H]2[C@@H]3CC[C@H]4C[C@H](O)CC[C@]4(C)[C@H]3CC[C@]12C` [compound 2, allopregnanolone], for which the affinity, expressed as Kd, was 11.8 ± 3.1 nM.
